Experimental findings from patent publication US9669100B2, “Polymer support for the distribution of a naturally crystalline substance and production method” (priority 2013, dated 2017) are described below.

A short description of series [1]: Solubilisation of naturally crystalline substances in the solvent mixture (dibasic esters / dimethyl isosorbide). The series is classed as physicochemical. The note with it: solvent mixture solvent/cosolvent.
Series [2] in a line: Stability of the active solution (limpid, no recrystallisation). The note with it: ESTASOL/ARLASOLVE DMI plus refined coconut oil; after stirring (30 min Example 1, 20 min Example 3). The series is classed as physicochemical. The procedure:
In a 1 liter beaker, the following products are successively introduce with stirring:
And then introduce by sprinkling while still stirring:
After completely dissolving, pour while still stirring:
300 g refined coconut oil.
In a 1 liter beaker, the following are successively added under stirring:
100 g refined coconut oil.
All is stirred for 20 minutes until the active solution becomes limpid.

A value given as a limit tells only on which side of the number the result lay.

As to `CC1(C)[C@H](C(=O)O[C@H](C#N)c2cccc(Oc3ccccc3)c2)[C@@H]1C=C(Br)Br` [Deltamethrin], the “maximum concentration possible without recrystallization in the active solution” value in series [1] (cold solution, even at low temperature) is listed as no more than 20 % by weight.
For `CNC(=O)Oc1ccccc1OC(C)C` [Propoxur], the “concentration dissolved in a stable manner in the solvent mixture” value in series [1] is recorded as 56 % by weight of solution.
For `Cn1c(=O)c2c(ncn2C)n(C)c1=O` [Caffeine], the “state of the active solution after preparation” value in series [2] was “does not recrystallise”.
